Reference: patent US5236927A, “Anti-cancer quinazoline derivatives” (National Research Development Corporation, priority 1985, dated 1993)
Read-outs that look alike come from different tables or passages of the source. Values belong to the molecule of their own block, whether it stands above or below them.

Experiments:
[1] = molecular target: T1, Thymidylate synthetase (TS) (Mus musculus, UniProt P07607); experiment: Thymidylate synthetase (TS) inhibition, 3H release assay; assay type: biochemical; conditions: for TS IRP (inverse relative potency, I50 test compound/I50 CB3717): relative to CB3717
T1 construct: A 50,000 g supernatant was prepared from a TS over-producing (45-fold) L1210 cell line; endogenous in cells; host or cells: L1210 (TS over-producing subline, 45-fold), 50,000 g supernatant
Description: Each compound was dissolved in 0.15M NaHCO3. Thymidylate synthetase was assayed by a ^3 H release method. A 50,000 g supernatant was prepared from a TS over-producing (45-fold) L1210 cell line that was developed in this Institute. The preparation buffer was 0.05M potassium phosphate/0.01M 2-mercaptoethanol, pH 7.4. […] The reaction mixture contained a total of 25 umoles of phosphate. Incubation time was for 1 hour at 37° C.
The results are tabulated below (Table 5). The I50 was defined as the inhibitor concentration necessary to reduce the activity of TS by 50%.

L1210 cells [2] = experiment: L1210 cell culture growth inhibition; assay type: cell-based; conditions: Mus musculus, 48 hours, read-out: L1210 ID50
Description: (§1) Cells in the log phase of growth were diluted to about 5×10^4 /ml and duplicate 5ml aliquots were added to 50 ml tissue culture flasks containing the appropriate additions (diluted in RPMI and sterilised by Millipore filtration). Cell counts after 48 hours of incubation were obtained by Coulter counting.

L1210/C15 cells = experiment: L1210/C15 cell culture growth inhibition (overproduces TS 45-fold); assay type: cell-based
Description: Cell counts after 48 hours of incubation were obtained by Coulter counting.

[3] = cited from earlier work
alanine transaminase = experiment: Comparative hepatotoxicity in the mouse (plasma alanine transaminase); assay type: in vivo
Description: […]. Plasma was prepared and the livers and kidneys excised and weighed.
Samples of plasma were also analysed for the enzyme alanine transaminase, an indicator of hepatotoxicity. […]

[4] = Urinary and faecal elimination in the mouse; assay type: in vivo; conditions: ip, 100 mg/kg i.p., 0-48 h
[5] = man, cited from earlier work
[6] = Toxicity and weight loss in treated L1210 tumour-bearing mice; assay type: in vivo, mouse; conditions: 200 mg/kg, data not included
Description: (§2) The L1210 tumour is carried routinely in DBA2 mice at the Institute of Cancer Research (L1210/CBRI). For experiments 5×10^4 cells were implanted i.p. into male C57Bl×DBA2 F1 hybrid mice 3 days prior to treatment. […] The control group consisted of 9 mice and treated groups 6 or 7 mice.

[7] = tested on: de novo thymidylate synthesis in L1210 cells; experiment: Incorporation of 3H dUrd into acid-precipitable material in L1210 cells; assay type: cell-based
Description: L1210 cells were used at a concentration of 10^5 /ml. Incubation at 37° C. was in complete RPMI tissue culture medium plus or minus drugs for the lengths of time indicated on the graphs. After this time ^3 H dUrd was added at a concentration of 2 uCi/ml (about 0.2 uM). Three 1 ml aliquots were removed after 20 minutes, placed on ice and mixed with 1 ml of ice-cold phosphate buffered saline (PBS). Precipitation onto glass-fibre discs was performed by trichloroacetic acid washing followed by PBS. […] This is an indirect measurement of de novo thymidylate synthesis in whole cells. […] These concentrations are 10 times the ID50 values.

L1210 cells [8] = conditions: grown in vitro; cited from earlier work
L1210 cells [9] = experiment: Reversal of L1210 toxicity by co-incubation with thymidine; assay type: cell-based; conditions: compound 50 uM + 10 uM thymidine
Description: as §1

L1210 tumour [10] = conditions: grown in vivo; cited from earlier work
L1210 cells [11] = conditions: cited from earlier work
in vivo = conditions: rat, iv, 100 mg/kg, Plasma levels
Description: (§3) During and after the infusion blood and bile samples were collected. Four hours after the experiment the rats were sacrificed and the urine collected from the bladder and the liver and kidneys removed.
(§4) Samples of plasma were also analysed for alanine transaminase.

[12] = Comparative pharmacokinetics in the mouse (plasma, liver, kidney levels); assay type: in vivo; conditions: for concentration at 3 h / concentration at 6 h: mouse, plasma, ip, read-out: Plasma quinazoline conc.
Description: 3 Hours and 6 hours after administration groups of three mice at each dose level were sacrificed by exsanguination via cardiac puncture. Plasma was prepared and the livers and kidneys excised and weighed.

L1210 tumour [13] = experiment: Treatment of L1210 tumour-bearing mice; assay type: in vivo, mouse
Description: as §2

[14] = rat, in vivo; for concentration: iv, 100 mg/kg
Description: as §3, §4

[15] = mouse; cited from earlier work
[16] = 100 mg/kg i.p., 3 h post-treatment
[17] = 100 mg/kg i.p., 6 h post-treatment
[18] = 300 mg/kg i.p., 3 h post-treatment
[19] = 300 mg/kg i.p., 6 h post-treatment

T1 sequence (P07607 whole entry): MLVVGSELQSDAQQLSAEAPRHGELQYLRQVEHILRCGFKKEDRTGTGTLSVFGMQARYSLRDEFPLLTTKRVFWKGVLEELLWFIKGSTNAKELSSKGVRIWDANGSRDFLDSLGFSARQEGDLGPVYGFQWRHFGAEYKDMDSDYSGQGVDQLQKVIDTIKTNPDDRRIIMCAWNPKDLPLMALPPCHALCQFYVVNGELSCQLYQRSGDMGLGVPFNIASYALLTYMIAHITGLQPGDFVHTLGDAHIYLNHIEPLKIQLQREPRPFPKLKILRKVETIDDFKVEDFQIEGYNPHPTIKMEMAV

Compound: C#CCN(Cc1ccc2nc[nH]c(=O)c2c1)c1ccc(C(=O)N[C@@H](CCC(=O)O)C(=O)O)s1 [CB3866, N-(5-(N-((3,4-dihydro-4-oxo-6-quinazolinyl)methyl)prop-2-ynylamino)thien-2-oyl)-L-glutamic acid]
IC50 ([1]; TS from TS over-producing L1210 line, 200 uM (±)-L-5,10-CH2FH4, 1 hour at 37° C, read-out: TS I50): 1700 nM
TS IRP (inverse relative potency, I50 test compound/I50 CB3717) [1]: 85

IC50 (L1210 cells [2]): 2600 nM
TS IRP (inverse relative potency, I50 test compound/I50 CB3717) [1]: 26
Compound: CCN(Cc1ccc2nc[nH]c(=O)c2c1)c1ccc(C(=O)N[C@@H](CCC(=O)O)C(=O)O)cc1 [CB3822, N-(4-(N-((3,4-dihydro-4-oxo-6-quinazolinyl)methyl)ethylamino)benzoyl)-L-glutamic acid]

IC50 (L1210 cells [2]): 700 nM
TS IRP (inverse relative potency, I50 test compound/I50 CB3717) [1]: 1136
Compound: O=C(O)CC[C@H](NC(=O)c1ccc(NCc2ccc3nc[nH]c(=O)c3c2)cc1)C(=O)O [CB3816, N-(4-(((3,4-dihydro-4-oxo-6-quinazolinyl)methyl)amino)benzoyl)-L-glutamic acid]

IC50 (L1210 cells [2]): 1700 nM
TS IRP (inverse relative potency, I50 test compound/I50 CB3717) [1]: 56
Compound: C=CCN(Cc1ccc2nc[nH]c(=O)c2c1)c1ccc(C(=O)N[C@@H](CCC(=O)O)C(=O)O)cc1 [CB3826, N-(4-(N-((3,4-dihydro-4-oxo-6-quinazolinyl)methyl)prop-2-enylamino)benzoyl)-L-glutamic acid]

Compound: CN(Cc1cnc2nc(N)nc(N)c2n1)c1ccc(C(=O)N[C@@H](CCC(=O)O)C(=O)O)cc1 [methotrexate]
resistance of L1210/C15 cells (L1210/C15 cells): not resistant

Compound: Cc1c(CNc2ccc(C(=O)N[C@@H](CCC(=O)O)C(=O)O)cc2)ccc2nc(N)nc(N)c12 [CB3703, 5CH35,8-dideazaaminopterin]
resistance of L1210/C15 cells (L1210/C15 cells): not resistant

Compound: C#CCN(Cc1ccc2nc(N)nc(O)c2c1)c1ccc(C(=O)N[C@@H](CCC(=O)O)C(=O)O)cc1 [CB3717, N-(4-(N-((2-amino-4-hydroxy-6-quinazolyl)methyl)prop-2-ynylamino)benzoyl)-L-glutamic acid, reference compound]
solubility at acid pH [3]: poor solubility
Plasma alanine transaminase level (alanine transaminase; [16]): 225 ± 146 U/L
Plasma alanine transaminase level (alanine transaminase; [17]): 273 ± 106 U/L
Plasma alanine transaminase level (alanine transaminase; [18]): 86 ± 61 U/L
Plasma alanine transaminase level (alanine transaminase; [19]): 973 ± 178 U/L
Levels of alanine transaminase (in words) (alanine transaminase; mice i.p., normal range 5-25U/l): markedly elevated
dose excreted at 48 h ([4]; faeces, read-out: Faecal excretion of the parent compound): 26 ± 7%
dose excreted at 48 h ([4]; urine, read-out: Urinary excretion of the parent compound): 15 ± 3%
hepatic toxicity [5]: apparently non-dose-related (although not life-threatening) hepatic toxicity
liver toxicity: alanine transaminase [5]: transient rise in alanine transaminase
responses noted during Phase I/II clinical studies ([5]; particularly breast and ovary): Several minor and partial responses
weight loss [6]: about 10%
mortality ([6]; mouse, in vivo, ip, read-out: death (of the animals)): ~50%
activity at 50 µM ([7]; Mus musculus, L1210, 10 min, 50 uM, by about 10 minutes): < 20%
L1210/C15 ID50 (L1210/C15 cells; 48 hours, at 100 uM): no inhibition
activity against L1210 cells in vitro (L1210 cells [8]): active against L1210 cells
Cell count at 48 hours as % control (L1210 cells [9]): 103 % control
activity against L1210 cells in vivo (L1210 tumour [10]): active against L1210 cells
effect of thymidine on cytotoxic effect (L1210 cells [11]): prevented in both cases by thymidine
concentration at 0.5 h (in vivo): 412 µM
concentration at 1 h (in vivo): 908 µM
Kidney quinazoline level [12, 16]: 13 ± 2 % dose administered
Liver quinazoline level [12, 16]: 32 ± 4 % dose administered
Kidney quinazoline level [12, 17]: 20 ± 8 % dose administered
Liver quinazoline level [12, 17]: 11 ± 2 % dose administered
Kidney quinazoline level [12, 18]: 6 ± 1 % dose administered
Liver quinazoline level [12, 18]: 22 ± 8 % dose administered
Kidney quinazoline level [12, 19]: 16 ± 1 % dose administered
Liver quinazoline level [12, 19]: 14 ± 6 % dose administered
detection in plasma, liver and kidneys ([12]; mice, 3 and 6 hours after i.p. dose, for CB3804 except plasma 3 h at 500 mg/kg): readily detected
concentration at 3 h [12, 16]: 134 ± 34 µM
concentration at 6 h [12, 17]: 59 ± 38 µM
concentration at 3 h [12, 18]: 214 ± 55 µM
concentration at 6 h [12, 19]: 362 ± 32 µM
"cures" (survived >100 days) (L1210 tumour [13]; 50 mg/kg i.p. daily ×5): about 70%
"cures" (L1210 tumour [13]; 100 mg/kg (the optimal dose), many previous experiments): 80-100%
clearance from the plasma (in words) [14]: cleared less rapidly
concentration ([14]; 0.5 h): 447 µM
concentration ([14]; 1 h): 878 µM
kidney toxicity: plasma urea [15]: rise in plasma urea
liver toxicity: alanine transaminase [15]: transient rise in alanine transaminase

IC50 (L1210 cells [2]): 1100 nM
TS IRP (inverse relative potency, I50 test compound/I50 CB3717) [1]: 53
Compound: CN(Cc1ccc2nc[nH]c(=O)c2c1)c1ccc(C(=O)N[C@@H](CCC(=O)O)C(=O)O)cc1 [CB3824, N-(4-(N-((3,4-dihydro-4-oxo-6-quinazolinyl)methyl)methylamino)benzoyl)-L-glutamic acid]

IC50 (L1210 cells [2]): 5000 nM
Compound: Nc1nc2ccc(CNc3ccc(C(=O)N[C@@H](CCC(=O)O)C(=O)O)cc3)cc2c(=O)[nH]1 [CB3705, 5,8-dideazafolic acid]
3H dUrd incorporation ([7]; 10 times the ID50 concentration): did not produce rapid suppression
3H dUrd incorporation ([7]; over 2 hours at the ID50 concentration (5 uM)): did not significantly effect
